Results on one molecule are retold here after patent US20220378706A1, “PHARMACEUTICAL COMPOSITION COMPRISING PDE9 INHIBITOR” (Eisai R&D Management Co., Ltd., priority 2017, published 2022).

As a reminder, the Tmax is the time at which the peak concentration occurs.

The subject of series [1] is cGMP in the cerebrospinal fluid. Description: CSF cGMP elevation in rats. It is filed as in vivo. The settings on record: rat, scopolamine. The method, then:
cGMP in the cerebrospinal fluid (hereinafter referred to as “CSF cGMP”) elevation in each sample was measured according to the method described in WO2013/051639.

A short description of series [2]: Single dose clinical study Part B: CSF Compound A pharmacokinetics. It counts as in vivo. The settings on record: human. How it is done: After the Screening Period, subjects returned to the clinic on […] for Baseline procedures. […] Serial CSF sampling via the lumbar catheter commenced on Day 1, after an overnight fast. CSF samples were collected on Day 1 over a period of 3 hours predose. Subjects were then administered study drug, and serial CSF sampling for 30 hours postdose was performed to determine CSF cGMP and CSF Compound A concentrations. Blood samples for plasma Compound A PK were collected at the same time points as CSF sampling. Safety evaluations were also performed.
Concentrations of Compound A in CSF were analyzed in serial CSF samples collected at predose and postdose at 1, 2, 3, 4, 5, 6, 8, 10, 12, 14, 16, 18, 24, and 30 hours.
Plasma, urine and CSF concentrations of Compound A were measured using validated liquid chromatography mass spectrometry/mass spectrometry (LC MS/MS) assay methods. CSF concentrations of cGMP were measured using a validated LC-MS/MS assay method.
The following PK parameters were derived by noncompartmental analysis using CSF Compound A concentrations: […]

Structures are written as SMILES. Read-outs that look alike come from different tables or passages of the source.

As to `COc1ncc(C)c(-c2ccc3c(c2)[nH]c(=O)c2cnn([C@H]4CCOC4)c23)c1C` [Compound A, (S)-7-(2-methoxy-3,5-dimethylpyridin-4-yl)-1-(tetrahydrofuran-3-yl)-1H-pyrazolo[4,3-c]quin olin-4(5H)-one], the “% CSF cGMP increase from vehicle control” value in series [1] (3.3 mg/kg oral) is given as “(90) %”; in series [1] (10 mg/kg oral), “(152) %”. Also, the “CSF cGMP conc.” value was 3.694 ± 0.65 nM in series [1] (3.3 mg/kg oral) and 4.889 ± 0.538 nM in series [1] (10 mg/kg oral). In addition, the Kp was 0.0241 to 0.028 in series [2] (CSF and plasma, oral, 50 to 400 mg, read-out: GM ratios of CSF AUC(0-t) to plasma AUC(0-t) across doses); 0.02 to 0.0277 in series [2] (CSF and plasma, oral, 50 to 400 mg, read-out: GM ratios of CSF Cmax to plasma Cmax across doses); 0.02 in series [2] (CSF and plasma, po, 50 mg, healthy adults Part B, single oral 50 mg, fasted, read-out: CSF: plasma Cmax ratio (expressed as %) GM (% CV)); 0.0264 in series [2] (CSF and plasma, po, 75 mg, healthy adults Part B, single oral 75 mg, fasted, from AUC (0-t) or AUC (0-30 h), read-out: CSF: plasma AUC ratio (expressed as %) GM (% CV)); 0.0264 in series [2] (CSF and plasma, po, 75 mg, healthy adults Part B, single oral 75 mg, fasted, read-out: CSF: plasma Cmax ratio (expressed as %) GM (% CV)); 0.0266 in series [2] (CSF and plasma, po, 100 mg, healthy adults Part B, single oral 100 mg, fasted, from AUC (0-t) or AUC (0-30 h), read-out: CSF: plasma AUC ratio (expressed as %) GM (% CV)). The Kp in series [2] (CSF and plasma, po, 100 mg, healthy adults Part B, single oral 100 mg, fasted, read-out: CSF: plasma Cmax ratio (expressed as %) GM (% CV)) was 0.0194; in series [2] (CSF and plasma, po, 200 mg, healthy adults Part B, single oral 200 mg, fasted, from AUC (0-t) or AUC (0-30 h), read-out: CSF: plasma AUC ratio (expressed as %) GM (% CV)) it was 0.0238; in series [2] (CSF and plasma, po, 200 mg, healthy adults Part B, single oral 200 mg, fasted, read-out: CSF: plasma Cmax ratio (expressed as %) GM (% CV)), 0.0214; in series [2] (CSF and plasma, po, 400 mg, healthy adults Part B, single oral 400 mg, fasted, from AUC (0-t) or AUC (0-30 h), read-out: CSF: plasma AUC ratio (expressed as %) GM (% CV)) it was 0.0279; in series [2] (CSF and plasma, po, 400 mg, healthy adults Part B, single oral 400 mg, fasted, read-out: CSF: plasma Cmax ratio (expressed as %) GM (% CV)), 0.0203; in series [2] (CSF, oral, 50 to 400 mg, read-out: mean CSF:plasma ratios (expressed as percentages) of Cmax or AUC(0-t)), 0.02 to 0.03. Further, the Tmax in series [2] (CSF, oral, single doses (50 to 400 mg except 50 mg; b332: 100 to 400 mg), read-out: median CSF tmax across doses) is 4.37 to 6.87 h; in series [2] (CSF, healthy adults Part B, single oral 50 mg, fasted, read-out: CSF tmax Median) it was 11.9 h; in series [2] (CSF, healthy adults Part B, single oral 75 mg, fasted, read-out: CSF tmax Median) it was 5.37 h; in series [2] (CSF, healthy adults Part B, single oral 100 mg, fasted, read-out: CSF tmax Median) it was 6.87 h; in series [2] (CSF, healthy adults Part B, single oral 200 mg, fasted, read-out: CSF tmax Median), 4.37 h; in series [2] (CSF, healthy adults Part B, single oral 400 mg, fasted, read-out: CSF tmax Median), 5.37 h.
